According to US20100160454A1, “ANTIMICROBIAL AGENTS, COMPOSITIONS AND PRODUCTS CONTAINING THE SAME, AND METHODS OF USING THE COMPOSITIONS AND PRODUCTS” (Eastman Chemical Company, priority 2008, published 2010):

Key:
Test in all cases: Microbiological challenge testing in BPW broth, graded subculture counts
Type in all cases: cell-based
[1] = test system: Escherichia coli ATCC 25922; settings: E. Coli
Procedure: (§1) The microorganisms in the table below were used in challenge tests. They were either ATCC (American Type Culture Collection) or “wild type” as indicated. Wild type organisms were problematic organisms previously isolated from chemical products.
(§2) All of the microorganisms were grown in Tryptose Soy Broth (TSB), DIFCO™ available from Becton, Dickinson and Company, containing 1% dextrose. Candida albicans and Aspergillus niger, were incubated at 22° C.+/−2° C. for at least 96 hours. All bacteria were incubated at 35° C.+/−2° C. in a humidified incubator for at least 96 hours.
(§3) The following procedure was followed to determine the amount of each challenge material (inoculum broth) needed to produce a 10^8 CFU/mL challenge, which is equivalent to a final test-sample microbial concentration of 10^5 to 10^6 CFU/mL (CFU=colony forming units).
(§4) Using a sterile pipette, 1 mL of the growth from each TSB culture was transferred into tubes of 9 mL buffered water (pH 7.2 phosphate buffer) and mixed thoroughly. This was repeated to make serial 1:10 dilutions. Then, 0.1 mL of each sample and dilution was inoculated onto agar plates to produce the equivalent of a further 1:10 dilution. (C. albicans and A. niger were inoculated onto SABD and bacteria were inoculated onto Plate Count Agar (PCA), DIFCO™ available from Becton, Dickinson and Company.) (The normal volume plated for most samples was 0.1 mL. Some samples that could be very low in micro-organisms (high dilutions) were plated using 0.5 mL of inoculum, in order to produce reproducible counts.) The samples were distributed on the plates using the spread-plate technique. The spread-plate technique is carried out by spreading the sample over the entire plate surface using a sterile spreading rod while rotating the plate with a rotary auto-plater. After the inoculum was absorbed completely by the agar, each plate was inverted and incubated (fungi at 22° C.+/−2° C. and bacteria at 35° C.+/−2° C.).
(§5) After incubation for at least 48 hours, colonies that had developed on the agar plates were counted (CFU) and recorded with the corresponding dilution. If counting had to be delayed temporarily, plates were refrigerated, preferably no more than 24 hours, until they could be counted. The number of CFU/mL was determined by multiplying the plate count by the dilution factor of the plate counted.
(§6) Turbidity in Nepholemetric Turbidity Units (NTU) was measured for each serial dilution using the HF-Micro 100 Model Turbidimeter. For each microorganism, the plate counts were compared to the turbidity readings.
(§7) Control substrates (“broth alone”) were prepared for each microorganism separately in triplicate by adding 13.5 mL of Buffered Peptone Water broth (BPW) containing 1% dextrose to each 20-mL glass tube, then adding 1.5 mL challenge material to produce a final concentration at time zero of 10^5 to 10^6 CFU/mL and a total volume of 15 mL.
(§8) Test sample substrates were prepared containing each test material listed below at the concentrations shown for challenge testing with each microorganism separately. Sample substrates were prepared in triplicate, except the substrates containing butoxyethanol which were prepared in duplicate. Substrates were prepared by adding BPW containing 1% dextrose to each 20-mL glass tube, then adding the test material in the amount appropriate to achieve the desired weight/volume percent and to achieve a total volume of BPW plus dextrose plus test material of 13.5 mL. Then 1.5 mL challenge material was added to produce a final concentration at time zero of 10^5 to 10^6 CFU/mL and a total test sample substrate volume of 15 mL.

[2] = test system: Staphylococcus epidermidis ATCC 12228
Procedure: as §1, §2, §3, §4, §5, §6, §7, §8

[3] = test system: Proteus vulgaris Wild type
Procedure: as §1, §2, §3, §4, §5, §6, §7, §8

[4] = test system: Candida albicans Wild type; settings: C. albicans
Procedure: as §1, §2
(§9) Candida albicans and Aspergillus niger were also grown on Sabouraud Dextrose Agar (SABD) at 22° C. for 7 to 14 days or until full sporulation was achieved.
as §3, §4, §5, §6
On the day of challenge, the Candida albicans inoculum broth was poured through nonabsorbent sterile gauze and centrifuged. The […] was then diluted with buffered water (pH 7.2 phosphate buffer) until the desired turbidity was reached. Using a hemocytometer, a determination was made whether the challenge contained the desired concentration. Dilutions were made through 1.0×10^8 and three SABD spread plates were inoculated with 0.1 mL of each dilution. The plates were incubated for at least 48 hours and challenge counts were confirmed.
as §7

[5] = test system: Aspergillus niger Wild type; settings: A. niger
Procedure: as §1, §2, §9, §3, §4, §5, §6
Aspergillus niger cultures were harvested and spores dislodged from the SABD on which they were grown by rubbing the growth gently with a sterile inoculating loop. The spores were then mixed into the broth culture that had been incubated with a sterile magnetic stir bar to reduce pellicle formation. The spore-culture mixture was filtered repeatedly through sterile, nonabsorbent cotton and harvested repeatedly, adjusting vegetative cells and spores to a level of 1.0×10^8. A hemocytometer was used to verify the final challenge concentration.
as §7

Compound: OCC1CCC(CO)CC1 (stereo not drawn) [1,4-CHDM, 1,4-cyclohexanedimethanol]
- Grade ([1]; 0.5% (wt/vol), 3 day): 5 (More than 10,000 colonies estimated (thus more than 100,000 CFU/mL))
- Grade ([1]; 0.5% (wt/vol), 14 day): 4 (1000 to 10,000 colonies countable (thus 10,000 CFU/mL to 100,000 CFU/mL))
- Grade ([1]; 0.5% (wt/vol), 30 day): 4 (1000 to 10,000 colonies countable (thus 10,000 CFU/mL to 100,000 CFU/mL))
- Grade ([1]; 1.25% (wt/vol), 3 day): 4 (1000 to 10,000 colonies countable (thus 10,000 CFU/mL to 100,000 CFU/mL))
- Grade ([1]; 1.25% (wt/vol), 14 day): 4 (1000 to 10,000 colonies countable (thus 10,000 CFU/mL to 100,000 CFU/mL))
- Grade ([1]; 1.25% (wt/vol), 30 day): 4 (1000 to 10,000 colonies countable (thus 10,000 CFU/mL to 100,000 CFU/mL))
- Grade ([1]; 2.5% (wt/vol), 3 day): 3 (100 to 1000 colonies (thus 1000 to 10,000 CFU/mL))
- Grade ([1]; 2.5% (wt/vol), 14 day): 2 (52 to 100 colonies counted (thus 520 to 1000 CFU/mL))
- Grade ([1]; 2.5% (wt/vol), 30 day): 0
- Grade ([1]; 5.0% (wt/vol), 3 day): 0
- Grade ([1]; 5.0% (wt/vol), 14 day): 0
- Grade ([1]; 5.0% (wt/vol), 30 day): 0
- S. epidermidis growth grade, 3 day ([2]; 0.5% weight/volume): 4 (1000 to 10,000 colonies countable (thus 10,000 CFU/mL to 100,000 CFU/mL))
- S. epidermidis growth grade, 13 day ([2]; 0.5% weight/volume): 4 (1000 to 10,000 colonies countable (thus 10,000 CFU/mL to 100,000 CFU/mL))
- S. epidermidis growth grade, 30 day ([2]; 0.5% weight/volume): 4 (1000 to 10,000 colonies countable (thus 10,000 CFU/mL to 100,000 CFU/mL))
- S. epidermidis growth grade, 3 day ([2]; 1.25% weight/volume): 2 (52 to 100 colonies counted (thus 520 to 1000 CFU/mL))
- S. epidermidis growth grade, 13 day ([2]; 1.25% weight/volume): 0.7
- S. epidermidis growth grade, 30 day ([2]; 1.25% weight/volume): 2 (52 to 100 colonies counted (thus 520 to 1000 CFU/mL))
- S. epidermidis growth grade, 3 day ([2]; 2.5% weight/volume): 0.7
- S. epidermidis growth grade, 13 day ([2]; 2.5% weight/volume): 0
- S. epidermidis growth grade, 30 day ([2]; 2.5% weight/volume): 0
- S. epidermidis growth grade, 3 day ([2]; 5.0% weight/volume): 0
- S. epidermidis growth grade, 13 day ([2]; 5.0% weight/volume): 0
- S. epidermidis growth grade, 30 day ([2]; 5.0% weight/volume): 0
- P. vulgaris growth grade, 3 day ([3]; 0.5% weight/volume): 4 (1000 to 10,000 colonies countable (thus 10,000 CFU/mL to 100,000 CFU/mL))
- P. vulgaris growth grade, 13 day ([3]; 0.5% weight/volume): 4 (1000 to 10,000 colonies countable (thus 10,000 CFU/mL to 100,000 CFU/mL))
- P. vulgaris growth grade, 30 day ([3]; 0.5% weight/volume): 4 (1000 to 10,000 colonies countable (thus 10,000 CFU/mL to 100,000 CFU/mL))
- P. vulgaris growth grade, 3 day ([3]; 1.25% weight/volume): 3 (100 to 1000 colonies (thus 1000 to 10,000 CFU/mL))
- P. vulgaris growth grade, 13 day ([3]; 1.25% weight/volume): 2 (52 to 100 colonies counted (thus 520 to 1000 CFU/mL))
- P. vulgaris growth grade, 30 day ([3]; 1.25% weight/volume): 0
- P. vulgaris growth grade, 3 day ([3]; 2.5% weight/volume): 1 (0 to 51 colonies counted (thus 10 to 510 CFU/mL based on 0.1-mL sample))
- P. vulgaris growth grade, 13 day ([3]; 2.5% weight/volume): 0
- P. vulgaris growth grade, 30 day ([3]; 2.5% weight/volume): 0
- P. vulgaris growth grade, 3 day ([3]; 5.0% weight/volume): 0
- P. vulgaris growth grade, 13 day ([3]; 5.0% weight/volume): 0
- P. vulgaris growth grade, 30 day ([3]; 5.0% weight/volume): 0
- Grade ([4]; 0.5% (wt/vol), 3 day): 3 (100 to 1000 colonies (thus 1000 to 10,000 CFU/mL))
- Grade ([4]; 0.5% (wt/vol), 14 day): 4 (1000 to 10,000 colonies countable (thus 10,000 CFU/mL to 100,000 CFU/mL))
- Grade ([4]; 0.5% (wt/vol), 30 day): 4 (1000 to 10,000 colonies countable (thus 10,000 CFU/mL to 100,000 CFU/mL))
- Grade ([4]; 1.25% (wt/vol), 3 day): 1 (0 to 51 colonies counted (thus 10 to 510 CFU/mL based on 0.1-mL sample))
- Grade ([4]; 1.25% (wt/vol), 14 day): 3 (100 to 1000 colonies (thus 1000 to 10,000 CFU/mL))
- Grade ([4]; 1.25% (wt/vol), 30 day): 4 (1000 to 10,000 colonies countable (thus 10,000 CFU/mL to 100,000 CFU/mL))
- Grade ([4]; 2.5% (wt/vol), 3 day): 0
- Grade ([4]; 2.5% (wt/vol), 14 day): 2 (52 to 100 colonies counted (thus 520 to 1000 CFU/mL))
- Grade ([4]; 2.5% (wt/vol), 30 day): 1 (0 to 51 colonies counted (thus 10 to 510 CFU/mL based on 0.1-mL sample))
- Grade ([4]; 5.0% (wt/vol), 3 day): 0
- Grade ([4]; 5.0% (wt/vol), 14 day): 0
- Grade ([4]; 5.0% (wt/vol), 30 day): 0
- Grade ([5]; 0.5% (wt/vol), 3 day): 4
- Grade ([5]; 0.5% (wt/vol), 13 day): 4
- Grade ([5]; 0.5% (wt/vol), 30 day): 4
- Grade ([5]; 1.25% (wt/vol), 3 day): 4
- Grade ([5]; 1.25% (wt/vol), 13 day): 4
- Grade ([5]; 1.25% (wt/vol), 30 day): 4
- Grade ([5]; 2.5% (wt/vol), 3 day): 2 (Countable (10 to 100 colonies))
- Grade ([5]; 2.5% (wt/vol), 13 day): 1 (Countable (1 to 10 colonies))
- Grade ([5]; 2.5% (wt/vol), 30 day): 2.3
- Grade ([5]; 5.0% (wt/vol), 3 day): 0
- Grade ([5]; 5.0% (wt/vol), 13 day): 0
- Grade ([5]; 5.0% (wt/vol), 30 day): 0
